# Tested on: 743489-274-T-PDC complex spheroid growth
# Test: Anticancer human tumor 743489-274-T-PDC patient-derived renal cell carcinoma cell line growth inhibition [AhR]
# Settings: for IC50: curve of first compound; for viability, T/C: stronger effect = lower value
# Excerpt: Multicellular complex tumor spheroid response to aryl hydrocarbon receptor antagonists in combination with a variety of drugs and investigational agents in selected tumor cell lines
# The current study was undertaken to assess response to aryl hydrocarbon receptor antagonists in combination with standard-of-care drugs and investigational agents in solid tumor complex spheroid models. Complex spheroids include a stromal component modeled by human endothelial cells (HUVEC) and fibroblasts modeled by human mesenchymal stem cells (MSCs). The concentration ranges selected for each drug and investigational agent were based upon clinically achievable concentrations if the clinical Cmax of the agent was known.
# Compounds. The drugs and investigational agents: BAY 2416964 (NSC825713), GNF351 (NSC835774), CH-223191 (NSC835775), CPI-455 (NSC825282), aza-TdCyd (NSC777586), decitabine (NSC127716), belinostat (NSC758774), entinostat (NSC756642), pevonedistat (NSC761192), tazemetostat (NSC777109), talazoparib (NSC765396), olaparib (NSC753686), selinexor (NSC780203), nedisertib (M3814, NSC802822), bortezomib (NSC756655), venetoclax (NSC766270), doxorubicin (NSC123127), elimusertib (BAY189344, NSC800525), ceralasertib (AZD6738, NSC777638), TAK-243 (NSC785004), alisertib (NSC759677), etoposide (NSC141540), topotecan (NSC609699), eribulin (NSC707389), gemcitabine (NSC613327), carboplatin (NSC241240), cisplatin (NSC119875), and SN-38 (NSC673596) were obtained from the National Cancer Institute (NCI) Developmental Therapeutics Program Chemical Repository (32). The FDA-approved anticancer drug set is available from the Developmental Therapeutics Program at https://dtp.cancer.gov/organization/dscb/obtaining/available plates.htm. […] The stock solutions were prepared in dimethyl sulfoxide (DMSO, Sigma-Aldrich, St. Louis, MO, cat. D2650), except for the platinum compounds which were prepared in saline (Quality Biological, Gaithersburg, MD, cat. 114-055-101), at 800-fold the tested concentration and stored at -70 degrees C prior to their use. All drugs and investigational agents were tested over a range starting from a high concentration at or near the clinical Cmax and decreasing in half-log increments. If the clinical Cmax for an agent had not been determined, the highest concentration tested was 10 microM (Table 1).
# Cell Culture. All cells were maintained in an incubator at 37 degrees C and 5% CO2 with 95% humidity. The PDC lines were cultured according to standard operating procedures established by the NCI PDMR (https://pdmr.cancer.gov). Briefly, all PDCs were thawed and cultured in Matrigel-coated flasks prepared with a working solution of 1X Ham's F-12 nutrient mix, without supplementation (Invitrogen, Waltham, MA, cat. 11765054), 100 U/mL penicillin-streptomycin (Invitrogen, cat. 15140122), and 2.5% Matrigel (Corning Inc., Corning, NY, cat. 354248) for the first three passages. All PDCs were cultured in complete DMEM/F-12 media containing advanced DMEM/F-12 (Invitrogen, cat. 12634028), 4.9% defined fetal bovine serum, heat inactivated (HyClone Laboratories Inc., Logan, UT, cat. SH30070.03HI), 389 ng/mL hydrocortisone (Sigma-Aldrich, cat. H4001), 9.7 ng/mL human EGF recombinant protein (Invitrogen, cat. PHG0313), 23.4 microg/mL adenine (Sigma-Aldrich, cat. A2786), 97.3 U/mL penicillin-streptomycin (Invitrogen, cat. 15140122), 1.9 mM L-glutamine (Invitrogen, cat. 25030081), and 9.7 microM Y-27632 dihydrochloride (Tocris Bioscience, Bristol, United Kingdom, cat. 1254). The PDCs were cultured in complete DMEM/F12 media without 10 microM Y-27632 dihydrochloride for at least two passages prior to the screen. The established cell lines NCI-H1341 and […] were cultured in DMEM/F-12, HEPES (Invitrogen, cat. 11330032), 5% defined fetal bovine serum (HyClone Laboratories Inc., cat. SH30070.03), ITS premix universal culture supplement [insulin (5 microg/mL), transferrin (5 microg/mL), and selenious acid (5 ng/mL)] […]
# [1] = second compound 0.1 µM, first compound 0.0316 µM
# [2] = second compound 0.1 µM, first compound 0.1 µM
# [3] = second compound 0.1 µM, first compound 0.316 µM
# [4] = second compound 0.1 µM, first compound 1 µM
# [5] = second compound 0.1 µM, first compound 3.16 µM
# [6] = second compound 0.1 µM, first compound 10 µM
# [7] = second compound 0.316 µM, first compound 0.0316 µM
# [8] = second compound 0.316 µM, first compound 0.1 µM
# [9] = second compound 0.316 µM, first compound 0.316 µM
# [10] = second compound 0.316 µM, first compound 1 µM
# [11] = second compound 0.316 µM, first compound 3.16 µM
# [12] = second compound 0.316 µM, first compound 10 µM
# [13] = second compound 1 µM, first compound 0.0316 µM
# [14] = second compound 1 µM, first compound 0.1 µM
# [15] = second compound 1 µM, first compound 0.316 µM
# [16] = second compound 1 µM, first compound 1 µM
# [17] = second compound 1 µM, first compound 3.16 µM
# [18] = second compound 1 µM, first compound 10 µM
# [19] = second compound 3.16 µM, first compound 0.0316 µM
# [20] = second compound 3.16 µM, first compound 0.1 µM
# [21] = second compound 3.16 µM, first compound 0.316 µM
# [22] = second compound 3.16 µM, first compound 1 µM
# [23] = second compound 3.16 µM, first compound 3.16 µM
# [24] = second compound 3.16 µM, first compound 10 µM
# [25] = second compound 10 µM, first compound 0.0316 µM
# [26] = second compound 10 µM, first compound 0.1 µM
# [27] = second compound 10 µM, first compound 0.316 µM
# [28] = second compound 10 µM, first compound 1 µM
# [29] = second compound 10 µM, first compound 3.16 µM
# [30] = second compound 10 µM, first compound 10 µM
# 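Note: spheroids exposed to agents for 7 days before readout.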
# 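Throughout, for viability, T/C: 100% = DMSO vehicle control wells.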
smiles,measurement,setting,value
CCc1c2c(nc3ccc(O)cc13)-c1cc3c(c(=O)n1C2)COC(=O)[C@]3(O)CC + CC(CO)NC(=O)c1cc(-c2ccc(Cl)cc2)nn(-c2cnn(C)c2)c1=O,IC50,second compound 0.1 µM,> 0.3 µM
same,IC50,second compound 0.316 µM,> 0.3 µM
same,IC50,second compound 1 µM,> 0.3 µM
same,IC50,second compound 3.16 µM,> 0.3 µM
same,IC50,second compound 10 µM,> 0.3 µM
same,"viability, T/C","second compound 0.1 µM, first compound 0.000949 µM",107%
same,"viability, T/C","second compound 0.1 µM, first compound 0.003 µM",105%
same,"viability, T/C","second compound 0.1 µM, first compound 0.00949 µM",87%
same,"viability, T/C","second compound 0.1 µM, first compound 0.03 µM",88.1%
same,"viability, T/C","second compound 0.1 µM, first compound 0.0949 µM",70.5%
same,"viability, T/C","second compound 0.1 µM, first compound 0.3 µM",64.5%
same,"viability, T/C","second compound 0.316 µM, first compound 0.000949 µM",87.7%
same,"viability, T/C","second compound 0.316 µM, first compound 0.003 µM",94%
same,"viability, T/C","second compound 0.316 µM, first compound 0.00949 µM",103%
same,"viability, T/C","second compound 0.316 µM, first compound 0.03 µM",78.7%
same,"viability, T/C","second compound 0.316 µM, first compound 0.0949 µM",71.5%
same,"viability, T/C","second compound 0.316 µM, first compound 0.3 µM",55.8%
same,"viability, T/C","second compound 1 µM, first compound 0.000949 µM",98.4%
same,"viability, T/C","second compound 1 µM, first compound 0.003 µM",88.7%
same,"viability, T/C","second compound 1 µM, first compound 0.00949 µM",91.6%
same,"viability, T/C","second compound 1 µM, first compound 0.03 µM",88.7%
same,"viability, T/C","second compound 1 µM, first compound 0.0949 µM",73.1%
same,"viability, T/C","second compound 1 µM, first compound 0.3 µM",68.4%
same,"viability, T/C","second compound 3.16 µM, first compound 0.000949 µM",94.2%
same,"viability, T/C","second compound 3.16 µM, first compound 0.003 µM",100%
same,"viability, T/C","second compound 3.16 µM, first compound 0.00949 µM",97.9%
same,"viability, T/C","second compound 3.16 µM, first compound 0.03 µM",84.3%
same,"viability, T/C","second compound 3.16 µM, first compound 0.0949 µM",76.8%
same,"viability, T/C","second compound 3.16 µM, first compound 0.3 µM",59.3%
same,"viability, T/C","second compound 10 µM, first compound 0.000949 µM",87.7%
same,"viability, T/C","second compound 10 µM, first compound 0.003 µM",93.1%
same,"viability, T/C","second compound 10 µM, first compound 0.00949 µM",82.7%
same,"viability, T/C","second compound 10 µM, first compound 0.03 µM",97.7%
same,"viability, T/C","second compound 10 µM, first compound 0.0949 µM",79.7%
same,"viability, T/C","second compound 10 µM, first compound 0.3 µM",65.2%
Nc1ccn(C2OC(CO)C(O)C2(F)F)c(=O)n1 (stereo not given) + CC(CO)NC(=O)c1cc(-c2ccc(Cl)cc2)nn(-c2cnn(C)c2)c1=O,IC50,second compound 0.1 µM,> 10 µM
same,IC50,second compound 0.316 µM,> 10 µM
same,IC50,second compound 1 µM,> 10 µM
same,IC50,second compound 3.16 µM,> 10 µM
same,IC50,second compound 10 µM,> 10 µM
same,"viability, T/C",[1],81.9%
same,"viability, T/C",[2],79.7%
same,"viability, T/C",[3],71.8%
same,"viability, T/C",[4],62.2%
same,"viability, T/C",[5],59.9%
same,"viability, T/C",[6],67.7%
same,"viability, T/C",[7],80.7%
same,"viability, T/C",[8],73%
same,"viability, T/C",[9],70.8%
same,"viability, T/C",[10],68.3%
same,"viability, T/C",[11],62.6%
same,"viability, T/C",[12],69.9%
same,"viability, T/C",[13],84%
same,"viability, T/C",[14],68.5%
same,"viability, T/C",[15],68.3%
same,"viability, T/C",[16],59.5%
same,"viability, T/C",[17],70%
same,"viability, T/C",[18],71.5%
same,"viability, T/C",[19],81.1%
same,"viability, T/C",[20],75.9%
same,"viability, T/C",[21],64.4%
same,"viability, T/C",[22],64.7%
same,"viability, T/C",[23],76.6%
same,"viability, T/C",[24],63.6%
same,"viability, T/C",[25],90.2%
same,"viability, T/C",[26],82.5%
same,"viability, T/C",[27],65.3%
same,"viability, T/C",[28],65.1%
same,"viability, T/C",[29],77.2%
same,"viability, T/C",[30],74.3%
O=C(c1cc(Cc2n[nH]c(=O)c3ccccc23)ccc1F)N1CCN(C(=O)C2CC2)CC1 + CC(CO)NC(=O)c1cc(-c2ccc(Cl)cc2)nn(-c2cnn(C)c2)c1=O,IC50,second compound 0.1 µM,> 10 µM
same,IC50,second compound 0.316 µM,> 10 µM
same,IC50,second compound 1 µM,> 10 µM
same,IC50,second compound 3.16 µM,> 10 µM
same,IC50,second compound 10 µM,> 10 µM
same,"viability, T/C",[1],106%
same,"viability, T/C",[2],100%
same,"viability, T/C",[3],98.3%
same,"viability, T/C",[4],103%
same,"viability, T/C",[5],95.3%
same,"viability, T/C",[6],101%
same,"viability, T/C",[7],86.3%
same,"viability, T/C",[8],95.2%
same,"viability, T/C",[9],91.8%
same,"viability, T/C",[10],91.9%
same,"viability, T/C",[11],91%
same,"viability, T/C",[12],96.1%
same,"viability, T/C",[13],93.4%
same,"viability, T/C",[14],96.3%
same,"viability, T/C",[15],100%
same,"viability, T/C",[16],93.1%
same,"viability, T/C",[17],94.8%
same,"viability, T/C",[18],97%
same,"viability, T/C",[19],93.6%
same,"viability, T/C",[20],92.5%
same,"viability, T/C",[21],99.4%
same,"viability, T/C",[22],87.5%
same,"viability, T/C",[23],96.4%
same,"viability, T/C",[24],92.9%
same,"viability, T/C",[25],103%
same,"viability, T/C",[26],109%
same,"viability, T/C",[27],97.9%
same,"viability, T/C",[28],96.7%
same,"viability, T/C",[29],93.7%
same,"viability, T/C",[30],105%

# — PubChem BioAssay AID1919002 (Molecular Pharmacology Branch, DTP, NCI, 2023)
